Source: US20260078114A1, “COMPOUND USED AS INHIBITOR OF CDK4 KINASE AND USE THEREOF” (TYK MEDICINES, INC., priority 2022, published 2026)

Tests used:
[1] = tested on: human mantle cell lymphoma cell JEKO-1; experiment: Cellular antiproliferative assay (MTT, 5 days), JEKO-1; assay type: cell-based; conditions: Homo sapiens, 120 h, JEKO-1 cells, 5 days incubation
How it was run: (§1)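 MTT read-out at 570 nm after 3 h MTT incubation and isopropanol/HCl/NP-40 solubilisation; cells seeded at 50,000 cells/ml in DMEM with 10% FBS, 37 °C, 5% CO2, compound exposure 5 days. Viability calculated relative to 0.1% DMSO control and blank medium.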

[2] = Preclinical rat pharmacokinetic test; assay type: in vivo; conditions: male SD rats, gavage (p.o.), 10 mg/kg, plasma
Description: Healthy adult SD rats, male, 6-8 weeks old, weighing 200-300 g. EDTA-Na2 anticoagulant. Analytical balance, animal weight scale, magnetic stirrer, freezing centrifuge, single-channel manual pipette. About 10 mg of the sample to be tested was precisely weighed, the converted 5% DMSO was added to dissolve, and then 10 percent solutol HS-15 and 85% saline were added, ultrasonic treatment was performed, vortex mixed, to obtain the solution having a concentration of 1 mg/mL; freshly prepared before use. Animals were kept in rat cages and fasted (not less than 10 h) the day before the test, but not water fasted; on the day of the test, they were weighed and labeled at the tail. Blank blood was collected before drug administration. Blood was collected from the tail vein. • Route of administration: gavage (p.o.). • Dose: 10 mg/kg • Administration volume: 10 mL/kg • Operation procedure: Hold the rat with the left hand with anti-biting gloves, made it stand upright, extent the 16-gauge gavage needle from the throat in the mouth, and then injected the drug into the stomach when there was no obvious resistance. Before and 0.5 […] and 24 h after the administration of the drug, 0.1 ml of whole blood from the test animal was collected in EDTA-Na2 anticoagulant tubes, which was mixed upside down for 3-4 times and then centrifuged at 10,000 g for 5 min at 4° C. to isolate the plasma, which was stored at -80° C. for testing. Blood was collected from the tail vein. […] Pipetted 25 μL of rat blank plasma in a centrifuge tube respectively, added 25 μL of prepared standard series solution (prepared in methanol), then added 200 μL of internal standard solution (prepared in methanol), vortexed and mixed for 2 min, centrifuged at 4° C., 10,000 g for 10 min. Unknown plasma samples treatment: 25 μL of rat plasma containing drug was aspirated, 25 μL of methanol and 200 μL of internal standard solution were added sequentially, vortexed and mixed for 2 min, and then centrifuged at 4° C. and 10,000 g for 10 min. The supernatant was extracted for LC/MS/MS detection. Shimadzu liquid phase and Triple Quad TM 6500+AB mass spectrometry were utilized to establish a quantitative assay for the compounds to be tested. The pro-drug concentration in plasma was determined. The blood drug concentration-time curves were plotted, and the main pharmacokinetic parameters were calculated using the non-compartment model in winnonlin Phoenix software, and the detailed data were shown in Table 3.

[3] = tested on: Human breast cancer cell MCF-7; experiment: Cellular antiproliferative assay (MTT, 5 days), MCF-7; assay type: cell-based; conditions: Homo sapiens, MCF7, 120 h, MCF-7 cells, 5 days incubation
How it was run: as §1

[4] = tested on: ovarian cancer cell A2780; experiment: Cellular antiproliferative assay (MTT, 5 days), A2780; assay type: cell-based, human; conditions: Homo sapiens, 120 h, A2780 cells, 5 days incubation
How it was run: as §1

SMILES | IC50 [1] [nM] | HL— [2] [h] | IC50 [3] [nM] | IC50 [4] [nM]
CC(C)n1c(N2CCOCC2)nc2c(F)cc(-c3nc(N[C@@H]4CCOC[C@H]4O)ncc3Cl)cc21 [TB-12, (3S,4R)-4-((5-chloro-4-(4-fluoro-1-isopropyl-2-morpholino-1H-benzo[d]imidazol-6-yl)pyrimidin-2-yl)amino)tetrahydro-2H-pyran-3-ol] | ≤ 500 | 3.14 | ≤ 500 | ≤ 500
CCS(=O)(=O)N1CCC(Nc2ncc(Cl)c(-c3cc(F)c4nc(N5CCOC5=O)n(C(C)C)c4c3)n2)CC1 [TB-31] | ≤ 500 | 1.34 | ≤ 500 | ≤ 500
C[C@H]1CCN(C)c2nc3c(F)cc(-c4nc(N[C@@H]5CCOC[C@H]5O)ncc4Cl)cc3n21 [TB-92, (3S,4R)-4-((5-chloro-4-((S)-9-fluoro-1,4-dimethyl-1,2,3,4-tetrahydrobenzo[4,5]imidazo[1,2-a]pyrimidin-7-yl)pyrimidin-2-yl)amino)tetrahydro-2H-pyran-3-ol] | ≤ 500 | 1.21 | ≤ 500 | ≤ 500
